Experimental data from PubChem BioAssay (NCI).
Values joined by “and” are separate entries in the source; they are usually repeats but may differ in a detail not shown here. Equal entries are not always repeated.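 Dose response: 5 concentrations. Exposure: 48 h. Format: 96-well plates. Endpoint: linear interpolation; highest concentration if not reached. The concentration for 50% growth inhibition is given as GI50. TGI: concentration producing complete growth inhibition.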

Assays:
Assay in all cases: NCI anticancer screen, dose series, 48 h
[1] = tested on: HOP-62 NSCLC
[2] = tested on: IGROV1 ovarian
[3] = tested on: SK-MEL-5 melanoma
[4] = tested on: HOP-92 NSCLC
[5] = tested on: RPMI-8226 leukemia
[6] = tested on: U251 CNS
[7] = tested on: SNB-75 CNS
[8] = tested on: SNB-78 CNS
[9] = tested on: HCC-2998 colon
[10] = tested on: KM20L2 colon

| Compound | TGI [1] | TGI [2] | TGI [3] | TGI [4] | TGI [5] | TGI [6] | TGI [7] | TGI [8] | GI50 [1] | GI50 [2] | GI50 [9] | TGI [9] | GI50 [4] | GI50 [5] | GI50 [6] | GI50 [7] | GI50 [3] | TGI [10] |
| --- | --- | --- | --- | --- | --- | --- | --- | --- | --- | --- | --- | --- | --- | --- | --- | --- | --- | --- |
| O=C1NC2(CCCC2)C2CCCCC12O (configuration not stated) | > 100 µM | > 100 µM | > 100 µM | > 100 µM | > 100 µM | > 100 µM | > 100 µM | > 100 µM | – | – | – | – | – | – | – | – | – | – |
| CC(C)=Cc1cccc2[nH]c(O)c(N=Nc3ccc(S(N)(=O)=O)cc3)c12 | > 25 µM | > 25 µM | > 25 µM | > 25 µM | > 25 µM | > 25 µM | > 25 µM | – | > 14.3 µM | > 25 µM | > 25 µM | > 25 µM | 6.57 µM | 8.16 µM | 4.24 µM | > 8.54 µM | – | – |
| O=C1OC(c2ccc(Cl)cc2)=N/C1=C\c1ccccc1 | > 100 µM | > 100 µM | > 100 µM | > 100 µM | > 100 µM | > 100 µM | > 100 µM | – | – | – | – | > 100 µM | – | – | – | – | – | – |
| CC1(C)CCc2c(c(N=Nc3ccccc3F)c3ccccc3c2O)O1 | > 100 µM | > 100 µM | > 100 µM | > 100 µM | > 100 µM | 37 µM | 53.3 µM | – | 45.3 µM | 32.4 µM | 22.6 µM | > 100 µM | 92.6 µM | > 100 µM | 19.4 µM | 20.4 µM | 52.6 µM | – |
| COc1ccc2nc3c(cc2c1)C(=O)CC(c1ccccc1)C3 (configuration not stated) | > 100 µM | > 100 µM | 44.5 µM | > 100 µM | > 100 µM | > 100 µM | > 100 µM | – | 2.75 µM | 2.32 µM | 15.9 µM | > 100 µM | – | 3.65 µM | 5.81 µM | 0.181 µM | 0.979 µM | – |
| C/C(CC(C)(C)N1CC1)=N\NC(=O)Nc1cccc2ccccc12 | 15.8 µM | 36.9 µM | 12.2 µM | 6.99 µM | 8.74 µM | 14.4 µM | 13.8 µM | – | 4.12 µM | 4.19 µM | 4.81 µM | 17 µM | 1.65 µM | 2.71 µM | 3.52 µM | 2.62 µM | 3.19 µM | – |
| CN[C@@H](Cc1cccc2ccccc12)C(=O)N[C@@H](CC(C)C)B(O)O | 0.129 µM and 0.0368 µM | 0.0554 µM and 0.0681 µM | 0.103 µM and 0.0128 µM | 0.0395 µM | 0.0439 µM | 0.119 µM and 0.0438 µM | 0.0617 µM | – | 0.0371 µM | 0.0187 µM | 0.0162 µM | 0.0298 µM | 0.0178 µM | 0.00547 µM | 0.0303 µM | 0.0227 µM | 0.0249 µM | – |
| COc1ccccc1NC(=O)C1=C(C)NC(C)=C(C(=O)Nc2ccccc2OC)C1c1ccccc1Cl | > 100 µM | > 100 µM | > 100 µM | > 100 µM | > 100 µM | > 100 µM | > 100 µM | – | – | – | – | > 100 µM | – | – | – | – | – | > 100 µM |
| COc1cc2c(cc1O)c(=O)n(CCN(C)C)c1c3cc4c(cc3ncc21)OCO4 | 0.044 µM | 8.2 µM | 0.0312 µM | 0.455 µM | 0.434 µM | 0.0426 µM | 0.315 µM | – | < 0.01 µM | 0.0417 µM | 0.109 µM | 0.398 µM | 0.0325 µM | 0.0242 µM | < 0.01 µM | < 0.0152 µM | 0.0121 µM | – |
| CCN1C(=O)N(CC)C2C1NN=c1s/c(=C\c3ccc(C(F)(F)F)cc3)c(=O)n12 (configuration not stated) | 29.8 µM | 33.1 µM | 2.63 µM | 35.9 µM | 8.67 µM | > 41.6 µM | 2.74 µM | – | 0.508 µM | 0.576 µM | 0.354 µM | 11.6 µM | 2.2 µM | 0.389 µM | 0.443 µM | 0.18 µM | 0.488 µM | – |
| CCc1cccc(NC(=O)Nc2ccc(Oc3ccc4nc(NC(=O)OC)[nH]c4c3)cc2)c1 | 11 µM | > 25 µM | 7.15 µM | 10.4 µM | > 25 µM | > 15.4 µM | > 14.1 µM | – | 3.1 µM | 5.37 µM | 11.7 µM | > 25 µM | 2.33 µM | 12.5 µM | 4.85 µM | 2.53 µM | 1.29 µM | – |
| CCCCC(OC(=O)c1ccc(N)cc1)C(=O)Nc1nc(CC(=O)OCC)cs1 (configuration not stated) | > 100 µM | > 100 µM | 34.5 µM | > 100 µM | > 100 µM | > 100 µM | > 100 µM | – | 56.5 µM | 51 µM | 67.5 µM | > 100 µM | 37.5 µM | 26.7 µM | 44.6 µM | 35.2 µM | 17.8 µM | – |
